Like-named read-outs stand apart in the source and are kept apart here.
Columns and labels:
wt (SH2-WT/BT2-WT) [1] = target: T1, wt (SH2-WT/BT2-WT) (Zea mays, UniProt P55241+Q947C0); conditions: read-out: ATP Km (absence of 3-PGA)
Excerpt: Activity in the absence of the activator 3PGA was examined. While 3PGA is a noted activator for plant AGPase, the mechanism of activation differs for the various AGPases. […] Thus, the term “activation fold” in the literature is merely an activity reported at single fixed substrate concentrations.
The small subunit mutant, MP, contains the first 198 amino acids of the small subunit of the maize endosperm enzyme and the last 277 amino acids from the potato tuber enzyme resulting in thirty-three amino acid sites that differ from the maize endosperm enzyme ([Cross et al., 2004]).

SH2-E = target: T2, SH2-E (Zea mays, UniProt P55241+Q947C0, N131R/T142F/A160T/Q261S/A396S/V416I/C424V/S444A); test: Pi inhibition study without 3-PGA, ATP varied (0.1-3 mM) at fixed Pi levels (10-30 mM) and sub-saturating G-1-P (1 mM), fit to mixed-type inhibition equations.; type: biochemical; conditions: read-out: Km (mM), varied substrate ATP, Pi inhibition in the absence of 3-PGA
T2 construct: SH2-E with wild type BT2 (SH2-E/BT2-WT), E. coli, purified
T2 sequence (Q947C0 1-475): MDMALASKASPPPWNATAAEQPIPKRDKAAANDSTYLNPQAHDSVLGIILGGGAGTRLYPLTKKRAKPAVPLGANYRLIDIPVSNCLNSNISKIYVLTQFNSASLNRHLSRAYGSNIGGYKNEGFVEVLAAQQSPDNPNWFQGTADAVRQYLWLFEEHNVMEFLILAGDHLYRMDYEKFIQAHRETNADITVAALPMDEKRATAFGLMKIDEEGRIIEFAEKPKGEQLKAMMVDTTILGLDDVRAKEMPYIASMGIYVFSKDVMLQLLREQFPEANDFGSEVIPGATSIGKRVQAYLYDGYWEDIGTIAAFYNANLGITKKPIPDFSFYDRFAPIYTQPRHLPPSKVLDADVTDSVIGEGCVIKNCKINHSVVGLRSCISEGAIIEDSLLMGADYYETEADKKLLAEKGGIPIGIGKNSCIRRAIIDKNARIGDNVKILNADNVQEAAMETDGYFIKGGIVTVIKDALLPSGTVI
T2 sequence (P55241 46-516 N131R/T142F/A160T/Q261S/A396S/V416I/C424V/S444A): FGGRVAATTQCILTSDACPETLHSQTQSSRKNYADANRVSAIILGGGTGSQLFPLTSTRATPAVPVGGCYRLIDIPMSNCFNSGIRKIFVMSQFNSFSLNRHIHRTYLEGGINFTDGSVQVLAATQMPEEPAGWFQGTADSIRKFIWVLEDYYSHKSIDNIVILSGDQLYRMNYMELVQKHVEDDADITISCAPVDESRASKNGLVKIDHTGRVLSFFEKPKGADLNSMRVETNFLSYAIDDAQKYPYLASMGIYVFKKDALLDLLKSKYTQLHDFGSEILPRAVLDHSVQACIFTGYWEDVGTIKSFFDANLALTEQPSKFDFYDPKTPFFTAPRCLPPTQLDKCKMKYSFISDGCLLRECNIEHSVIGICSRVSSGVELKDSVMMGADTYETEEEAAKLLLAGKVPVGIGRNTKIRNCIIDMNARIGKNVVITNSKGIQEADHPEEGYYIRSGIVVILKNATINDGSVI
Description: (§1) Pi inhibition was carried out in both the presence and absence of 3-PGA with the Pi and substrate concentrations listed below.
(§2) Pi inhibition patterns in the presence and absence of 3PGA were also determined. Pi inhibition patterns were obtained by varying one substrate at several fixed concentrations of Pi, while holding the co-substrate at constant sub-saturating levels.

wt (SH2-WT/BT2-WT) [2] = target: T1, wt (SH2-WT/BT2-WT); conditions: read-out: Km (mM), varied substrate ATP, Pi inhibition in the absence of 3-PGA
Description: as §1, §2

T1 sequence (P55241 46-516, one chain of several): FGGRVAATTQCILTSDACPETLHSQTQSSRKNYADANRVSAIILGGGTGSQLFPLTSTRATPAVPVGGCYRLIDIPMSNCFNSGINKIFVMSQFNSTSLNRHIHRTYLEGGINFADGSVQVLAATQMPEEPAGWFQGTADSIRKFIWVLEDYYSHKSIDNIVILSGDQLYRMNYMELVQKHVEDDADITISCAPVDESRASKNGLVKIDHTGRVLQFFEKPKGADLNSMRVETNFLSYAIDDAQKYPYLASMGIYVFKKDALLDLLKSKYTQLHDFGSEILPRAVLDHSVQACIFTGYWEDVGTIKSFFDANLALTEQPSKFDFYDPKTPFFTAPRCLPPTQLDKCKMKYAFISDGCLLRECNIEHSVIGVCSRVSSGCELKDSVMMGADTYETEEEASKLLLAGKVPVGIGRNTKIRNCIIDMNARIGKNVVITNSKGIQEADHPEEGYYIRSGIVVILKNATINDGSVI

`Nc1ncnc2c1ncn2[C@@H]1O[C@H](COP(=O)(O)OP(=O)(O)OP(=O)(O)O)[C@@H](O)[C@H]1O` [ATP, adenosine 5'-triphosphate] was tested, and the Km (wt (SH2-WT/BT2-WT) [1]) was 4 mM, the Km (SH2-E) was 0.97 ± 0.081 mM and the Km (wt (SH2-WT/BT2-WT) [2]) was 20.4 ± 10.1 mM.
